Experimental data reported in EPA's ToxRefDB 2.

What was measured:
dog [1] = conditions: Chronic toxicity, beagle, Oral, Capsule, dose end: 52 week
mouse [2] = conditions: Carcinogenicity, cd1, Oral, Feed, dose end: 18 month, group: systemic
rat [3] = conditions: Combined chronic toxicity/carcinogenicity, sprague dawley, Oral, Feed, dose end: 24 month
rat [4] = conditions: Prenatal developmental toxicity study, sprague dawley, Oral, Gavage/Intubation, dose end: 15 GD
rat [5] = conditions: Subchronic oral toxicity in rodents, sprague dawley, Feed, dose end: 13 week, group: systemic
mouse [6] = conditions: Subchronic oral toxicity in rodents, b6c3f1, Feed, dose end: 90 day, group: systemic
dog [7] = conditions: Sub-acute repeat dose toxicity, beagle, Oral, Feed, group: systemic
rat [8] = conditions: Multigenerational reproductive toxicity study, sprague dawley, Inhalation, Whole-Body, dose end: 2 generation
rat [9] = conditions: Prenatal developmental toxicity study, sprague dawley, Inhalation, Whole-Body, dose end: 19 GD, group: maternal
dog [10] = conditions: Subchronic oral toxicity in nonrodent, beagle, Capsule, dose end: 13 week, group: systemic
rat [11] = conditions: Combined chronic toxicity/carcinogenicity, sprague dawley, Oral, [Not Specified], dose end: 104 week, group: systemic
mouse [12] = conditions: Carcinogenicity, cd1, Oral, Feed, dose end: 80 week, group: systemic
rat [13] = conditions: Multigenerational reproductive toxicity study, sprague dawley, Oral, Feed, dose end: 2 generation
rat [14] = conditions: Subchronic oral toxicity in rodents, sprague dawley, Feed, dose end: 13 week, group: systemic; remark: listed apart in the source
rat [15] = conditions: Prenatal developmental toxicity study, sprague dawley, Oral, Gavage/Intubation, dose end: 16 GD
dog [16] = conditions: Chronic toxicity, beagle, Oral, Capsule, dose end: 52 week, group: systemic
[17] = group: cholinesterase, cholinesterase / cholinesterase / cholinesterase / plasma cholinesterase (che)
[18] = group: cholinesterase, cholinesterase / cholinesterase / cholinesterase / plasma cholinesterase (che) + cholinesterase / cholinesterase / cholinesterase / brain …
[19] = group: systemic, systemic / in life observation / clinical signs / tremors + systemic / in life observation / clinical signs / vomitting
[20] = systemic / in life observation / body weight / body weight + systemic / in life observation / food consumption / food consumption
[21] = group: systemic, systemic / hematology / erythrocyte (rbc) count differential / erythrocyte (rbc) + systemic / hematology / hematocrit (hct) / hematocrit (…
[22] = group: developmental, developmental / developmental malformation / bone / incomplete ossification
[23] = group: developmental, developmental / developmental malformation / bone / incomplete ossification + developmental / developmental malformation / bone / …
[24] = group: maternal, systemic / in life observation / food consumption / food consumption + systemic / in life observation / body weight / body weight + systemic…
[25] = systemic / clinical chemistry / alanine aminotransferase (alt/sgpt) / alanine aminotransferase (alt/sgpt) + systemic / clinical chemistry / …
[26] = systemic / in life observation / body weight / body weight + systemic / in life observation / food consumption / food consumption + systemic…
[27] = group: offspring, systemic / organ weight / kidney / nos + systemic / in life observation / body weight / offspring (pup) weight + developmental / …
[28] = group: parental, systemic / pathology gross / lung / discolored
[29] = group: reproductive, reproductive / offspring survival early / birth index / live birth index + reproductive / reproductive performance / estrous cycle / corpora…
[30] = systemic / in life observation / body weight / body weight gain + systemic / in life observation / body weight / body weight + systemic / in…
[31] = systemic / in life observation / body weight / body weight gain + systemic / urinalysis / porphyrins / porphyrins
[32] = systemic / in life observation / body weight / body weight gain + systemic / urinalysis / porphyrins / porphyrins + systemic / hematology / …
[33] = systemic / pathology microscopic / liver / discolored
[34] = systemic / pathology microscopic / liver / discolored + systemic / clinical chemistry / cholesterol / cholesterol + systemic / in life …
[35] = systemic / in life observation / body weight / body weight gain + systemic / pathology microscopic / liver / inflammation
[36] = group: offspring, systemic / in life observation / body weight / offspring (pup) weight
[37] = group: parental, systemic / hematology / mean corpuscular (cell) volume (mcv) / mean corpuscular (cell) volume (mcv) + systemic / hematology / mean …
[38] = group: developmental, developmental / developmental malformation / bone / thickened + developmental / developmental malformation / bone / wavy
[39] = group: maternal, systemic / in life observation / clinical signs / abdominogenital staining + systemic / in life observation / clinical signs / discharge on …
[40] = systemic / urinalysis / porphyrins / porphyrins
[41] = systemic / urinalysis / porphyrins / porphyrins + systemic / organ weight / liver / absolute

Work on `CCOP(=S)(OCC)SCSCC` [Phorate] yielded an LEL (dog [1]; [17]) of 0.05 mg/kg/day, an LOAEL (dog [1]; [17]) of 0.05 mg/kg/day and an NEL (dog [1]; [18]) of 0.01 mg/kg/day. It also gave an NOAEL (dog [1]; [18]) of 0.01 mg/kg/day, an LOAEL (dog [1]; group: systemic, systemic / in life observation / clinical signs / tremors + systemic / in life observation / body weight / body weight gain) of 0.25 mg/kg/day and an NEL (dog [1]; [19]) of 0.005 mg/kg/day. For the same compound, the NOAEL (dog [1]; [19]) was 0.05 mg/kg/day, the LEL (dog [1]; group: systemic, systemic / in life observation / clinical signs / vomitting) was 0.01 mg/kg/day and the LOAEL (mouse [2]; systemic / in life observation / body weight / body weight) was 0.8 mg/kg/day. For the same compound, the LEL (mouse [2]; [20]) was 0.8 mg/kg/day, the NEL (mouse [2]; [20]) was 0.4 mg/kg/day and the NOAEL (mouse [2]; [20]) was 0.4 mg/kg/day. For the same compound, the LEL (rat [3]; [17]) was 0.05 mg/kg/day, the LOAEL (rat [3]; [17]) was 0.05 mg/kg/day and the NEL (rat [3]; [17]) was under 0.05 mg/kg/day. The NOAEL (rat [3]; [17]) was under 0.05 mg/kg/day, the LEL (rat [3]; [21]) was 0.3 mg/kg/day and the LOAEL (rat [3]; [21]) was over 0.3 mg/kg/day. The NEL (rat [3]; [21]) was 0.15 mg/kg/day, the NOAEL (rat [3]; [21]) was at least 0.3 mg/kg/day and the LEL (rat [4]; [22]) was 0.1 mg/kg/day. It also gave an NEL (rat [4]; [22]) of under 0.1 mg/kg/day, an LOAEL (rat [4]; [23]) of 0.4 mg/kg/day and an NOAEL (rat [4]; [23]) of 0.3 mg/kg/day. It also gave an LOAEL (rat [4]; group: maternal, systemic / in life observation / food consumption / food consumption) of 0.2 mg/kg/day, an LEL (rat [4]; [24]) of 0.4 mg/kg/day and an NEL (rat [4]; [24]) of 0.3 mg/kg/day. It also gave an NOAEL (rat [4]; [24]) of 0.1 mg/kg/day.
With `CC(C)[C@H](C(=O)O[C@H](C#N)c1cccc(Oc2ccccc2)c1)c1ccc(Cl)cc1` [Esfenvalerate] the LOAEL (rat [5]; systemic / in life observation / clinical signs / jerking movements) was 7.5 mg/kg/day, the NOAEL (rat [5]; systemic / in life observation / clinical signs / jerking movements + systemic / in life observation / body weight / body weight gain + …) was 2.5 mg/kg/day and the LEL (rat [5]; systemic / in life observation / clinical signs / jerking movements + systemic / organ weight / kidney / relative to body weight) was 7.5 mg/kg/day. It also gave an NEL (rat [5]; systemic / organ weight / kidney / relative to body weight + systemic / hematology / erythrocyte (rbc) count differential / erythrocyte (rbc…) of 2.5 mg/kg/day, an LOAEL (mouse [6]; [25]) of 106 mg/kg/day and an NEL (mouse [6]; [25]) of 10.5 mg/kg/day. The NOAEL (mouse [6]; [25]) was 30.5 mg/kg/day, the LEL (mouse [6]; systemic / clinical chemistry / glucose / glucose + systemic / clinical chemistry / triglycerides / triglycerides) was 30.5 mg/kg/day and the LOAEL (dog [7]; systemic / in life observation / body weight / body weight + systemic / in life observation / clinical signs / ataxia) was 7.5 mg/kg/day. It also gave an LEL (dog [7]; systemic / in life observation / body weight / body weight + systemic / in life observation / clinical signs / ataxia + systemic / in life …) of 7.5 mg/kg/day, an NEL (dog [7]; [26]) of 2.5 mg/kg/day and an NOAEL (dog [7]; [26]) of 2.5 mg/kg/day.
With `CI` [Methyl iodide] the LEL (rat [8]; [27]) was 5 ppm, the LOAEL (rat [8]; [27]) was 5 ppm and the NEL (rat [8]; [27]) was under 5 ppm. It also gave an NOAEL (rat [8]; [27]) of under 5 ppm, an LEL (rat [8]; [28]) of 5 ppm and an LOAEL (rat [8]; [28]) of 5 ppm. The NEL (rat [8]; [28]) was under 5 ppm, the NOAEL (rat [8]; [28]) was under 5 ppm and the LEL (rat [8]; [29]) was 50 ppm. For the same compound, the LOAEL (rat [8]; [29]) was 50 ppm, the NEL (rat [8]; [29]) was 20 ppm and the NOAEL (rat [8]; [29]) was 20 ppm. For the same compound, the LOAEL (rat [9]; systemic / in life observation / body weight / body weight gain) was 60 ppm, the LEL (rat [9]; [30]) was 60 ppm and the NEL (rat [9]; [30]) was 20 ppm. It also gave an NOAEL (rat [9]; [30]) of 20 ppm.
`CCOC(=O)C(Cl)Cc1cc(-n2nc(C)n(C(F)F)c2=O)c(F)cc1Cl` (configuration not stated) [Carfentrazone-ethyl] showed an LEL (dog [10]; [31]) of 150 mg/kg/day, an LOAEL (dog [10]; [31]) of 150 mg/kg/day and an NEL (dog [10]; [32]) of 50 mg/kg/day. It also gave an NOAEL (dog [10]; [32]) of 50 mg/kg/day, an LEL (rat [11]; [33]) of 12 mg/kg/day and an LOAEL (rat [11]; [33]) of 12 mg/kg/day. It also gave an NEL (rat [11]; [34]) of 3 mg/kg/day, an NOAEL (rat [11]; [34]) of 3 mg/kg/day and an LEL (mouse [12]; [35]) of 10 mg/kg/day. The NEL (mouse [12]; [35]) was under 10 mg/kg/day, the NOAEL (mouse [12]; systemic / in life observation / body weight / body weight gain + systemic / pathology microscopic / liver / inflammation + systemic / in …) was 10 mg/kg/day and the LOAEL (mouse [12]; systemic / pathology microscopic / liver / inflammation + systemic / in life observation / mortality / mortality + systemic / pathology …) was 110 mg/kg/day. For the same compound, the LEL (rat [13]; [36]) was 343 mg/kg/day, the LOAEL (rat [13]; [36]) was 343 mg/kg/day and the NEL (rat [13]; [36]) was 127 mg/kg/day. The NOAEL (rat [13]; [36]) was 127 mg/kg/day, the LEL (rat [13]; [37]) was 343 mg/kg/day and the LOAEL (rat [13]; [37]) was 343 mg/kg/day. It also gave an NEL (rat [13]; [37]) of 127 mg/kg/day, an NOAEL (rat [13]; [37]) of 127 mg/kg/day and an LOAEL (rat [14]; [25]) of 470 mg/kg/day. For the same compound, the NEL (rat [14]; [25]) was 58 mg/kg/day, the NOAEL (rat [14]; [25]) was 226 mg/kg/day and the LEL (rat [14]; systemic / in life observation / clinical signs / urine, discoloration + systemic / in life observation / food consumption / food …) was 226 mg/kg/day. It also gave an LEL (rat [15]; [38]) of 1250 mg/kg/day, an LOAEL (rat [15]; [38]) of 1250 mg/kg/day and an NEL (rat [15]; [38]) of 600 mg/kg/day. The NOAEL (rat [15]; [38]) was 600 mg/kg/day, the LEL (rat [15]; [39]) was 600 mg/kg/day and the LOAEL (rat [15]; [39]) was 600 mg/kg/day. For the same compound, the NEL (rat [15]; [39]) was 100 mg/kg/day, the NOAEL (rat [15]; [39]) was 100 mg/kg/day and the LEL (dog [16]; [40]) was 150 mg/kg/day. The LOAEL (dog [16]; [40]) was 150 mg/kg/day, the NEL (dog [16]; [41]) was 50 mg/kg/day and the NOAEL (dog [16]; [41]) was 50 mg/kg/day.
